The record followed here is ChEMBL document CHEMBL3272310, “Effect of chain length on critical micelle formation and protein binding of quaternary ammonium compounds” (J Med Chem, 1976).

SMILES strings stand for the structures.

One may read the logP as a log measure of how a compound divides between an organic and an aqueous phase. Low values mean a more hydrophilic compound, high ones a more lipophilic compound.

Series [1] is described as follows: Critical micelle concentration of the compound. In kind it is ADME.
For a further series, the target named is Albumin (Bos taurus, UniProt P02769). As to the kind of experiment: Binding affinity to bovine serum albumin. Particulars: cattle, isolated protein.
Series [2] in a line: 1-Octanol-water partition coefficient, log P of the compound. In kind it is physicochemical.

Chain of Albumin (P02769 whole entry): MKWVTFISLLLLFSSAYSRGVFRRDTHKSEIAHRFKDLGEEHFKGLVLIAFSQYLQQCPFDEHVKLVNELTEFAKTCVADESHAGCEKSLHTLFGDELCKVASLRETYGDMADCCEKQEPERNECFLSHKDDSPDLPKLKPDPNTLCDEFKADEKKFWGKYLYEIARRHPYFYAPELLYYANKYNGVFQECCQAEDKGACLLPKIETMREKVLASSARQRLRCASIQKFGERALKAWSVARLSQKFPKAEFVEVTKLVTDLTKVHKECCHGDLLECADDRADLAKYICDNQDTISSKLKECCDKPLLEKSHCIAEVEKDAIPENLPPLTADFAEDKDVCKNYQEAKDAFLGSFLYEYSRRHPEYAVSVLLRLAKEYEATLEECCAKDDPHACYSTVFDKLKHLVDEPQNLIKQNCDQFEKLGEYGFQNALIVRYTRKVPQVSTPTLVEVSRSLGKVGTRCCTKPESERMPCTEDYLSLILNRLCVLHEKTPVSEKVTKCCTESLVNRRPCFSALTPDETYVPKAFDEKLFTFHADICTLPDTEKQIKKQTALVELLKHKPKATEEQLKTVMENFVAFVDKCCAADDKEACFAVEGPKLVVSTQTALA

Consider `CCCCCCCCCCCCCCCCCC[N+](C)(C)Cc1ccccc1.[Cl-]`, for which the log1/CMC in series [1] stood at 4.48.

For the compound `CCCCCCCCCC[N+](C)(C)Cc1ccccc1.[Cl-]`, the log1/CMC in series [1] amounted to 1.47. Further, on Albumin, the “log K” value amounted to 5.

In turn, `CCCCCCCC[N+](C)(C)Cc1ccccc1.[Cl-]` returned a log1/CMC in series [1] of 0.67. Moreover, the “log K” value on Albumin is listed as 4.82.

In the case of `CCCCCCCCCCC[N+](C)(C)Cc1ccccc1.[Cl-]`, in series [1], the log1/CMC came to 1.85. The “log K” value at Albumin was 4.55.

With `CCCCCCCCCCCCCCC[N+](C)(C)Cc1ccccc1.[Cl-]`, in series [1], the log1/CMC came out at 3.22. For the same compound, on Albumin, the “log K” value amounted to 3.57.

With `CCCCCCCCCCCCCCCCC[N+](C)(C)Cc1ccccc1.[Cl-]`, the log1/CMC in series [1] is listed as 4. Also, on Albumin, the “log K” value turned out to be 3.55.

Turning to `CCCCCCCCCCCCCCCCCCC[N+](C)(C)Cc1ccccc1.[Cl-]`, the log1/CMC in series [1] stood at 4.74.

In series [2], `CC[N+](C)(C)Cc1ccccc1` registered a logP of -3.38.

On to `CCCC[N+](C)(C)Cc1ccccc1`, for which the logP in series [2] is -1.85.

Regarding `CCCCCC[N+](C)(C)Cc1ccccc1`, in series [2], the logP is -1.53.

As for `CCCCCCCC[N+](C)(C)Cc1ccccc1`, the logP in series [2] is -0.29.

In series [1], `CCCCCCCCCCCCC[N+](C)(C)Cc1ccccc1.[Cl-]` [BENZALKONIUM CHLORIDE] had a log1/CMC of 2.57. Also, the “log K” value at Albumin is reported as 3.85.

`CCCCCCCCCCCC[N+](C)(C)Cc1ccccc1.[Cl-]` [BENZODODECINIUM CHLORIDE]: the log1/CMC in series [1] stood at 2.16. At Albumin, the “log K” value is on record as 4.26.

Consider `CCCCCCCCCCCCCCCC[N+](C)(C)Cc1ccccc1.[Cl-]` [CETALKONIUM CHLORIDE], for which the log1/CMC in series [1] worked out at 3.62. Moreover, the “log K” value at Albumin was found to be 3.49.

As to `CCCCCCCCCCCCCC[N+](C)(C)Cc1ccccc1.[Cl-]` [MIRISTALKONIUM CHLORIDE], the log1/CMC in series [1] was determined as 2.92. Also, the “log K” value at Albumin is 3.51.
